Assay results published in patent US9839618B2, “Compositions and methods relating to proliferative diseases” (The Penn State Research Foundation, priority 2010, dated 2017).
Read-outs that look alike come from different tables or passages of the source.

Experiments:
[1] = tested on: FF2441 normal human fibroblasts; experiment: MTS assay viability IC50, normal fibroblasts; assay type: cell-based
Description: (§1) The efficacy of leelamine to kill other cancer types is measured and the IC50 for cell lines derived from carcinomas of breast, lung, prostate, connective tissue, pancreas and colon determined. The MTS assay as described in Sharma, A. et al., Clin Cancer Res, 2009, 15:1674-85; and Madhunapantula, S. V. et al., Mol Cancer Ther, 2008, 7:1297-308 is used to establish the IC50 at 24, 48 and 72 hours of leelamine treatment for normal human epidermal melanocytes (FOM103), normal skin fibroblast cells (FF2441), normal skin keratinocytes (HFK) and compared to melanocytic lesion cells from the radial-, vertical- and metastatic melanoma stages. 5×10^3 cells per well in 100 μL of media are plated and grown in a 96-well plate for 48 to 72 hours and treated with either DMSO vehicle control or 0.62 to 40 μmol/L of leelamine for 24, 48 or 72 hours. IC50 values for each compound in μmol/L for respective cell lines are measured from three independent experiments using GraphPad Prism version 4.01 (GraphPad Software, La Jolla, Calif.). Leelamine is found to be not toxic to normal cells and effective to kill melanoma cells as well as non-melanoma cancer cells as shown in Table 1 in FIG. 20. Leelamine is 3- to 4-fold more specific at killing metastatic melanoma than normal cells, supporting cancer therapeutic utility at concentrations<2 μmol/L.
5×10^3 cells per well in 100 μL of media are plated and grown in a 96-well plate for 48 to 72 hours and treated with either DMSO vehicle control or 0.62 to 40 μmol/L of leelamine for 24, 48 or 72 hours. IC50 values for each compound in μmol/L for respective cell lines are measured from three independent experiments using GraphPad Prism version 4.01 (GraphPad Software, La Jolla, Calif.). […]
(§2) Dehydroabietylamine, its N-substituted derivatives and the corresponding dihydroabietylamine and its N-substituted derivatives are tested for their capability to inhibit cell growth of cancer cell lines, including melanoma (UACC 903, 1205Lu), breast (MCF-7), fibrosarcoma (HT-1080), colon (Caco-2), and prostate (PC-3) cancer cell lines. Viability and IC50 of normal human fibroblasts and cell lines from melanoma and other malignancies following treatment with all the agents are measured using the MTS assay (Promega, Madison, Wis.). Human fibroblast FF2441 cells, metastatic melanoma cell lines 1205 Lu and UACC 903 as well as cancer cell lines representing sarcoma (HT-1080), prostate (PC-3, LNCaP), breast (MCF-7) and lung (A-549) are maintained in DMEM (Invitrogen, Carlsbad, Calif.) supplemented with 10% FBS (Hyclone, Logan, Utah) in a 5% CO2 atmosphere, humidified 37° C. incubator. 5×10^3 cells per well in 100 μL of media are plated and grown in a 96-well plate for 48 to 72 h and treated with either DMSO vehicle control or 0.62 to 40 μmol/L for 24, 48 or 72 h. IC50 values for each compound in […] for respective cell lines are measured from three independent experiments using GraphPad Prism version 4.01 (GraphPad Software, La Jolla, Calif.). FIG. 52 is a graph showing IC50 values for leelamine and compounds 4a, 4b and 5a in treated fibroblasts (FF2441) compared to melanoma cells. Selectivity ratio here is defined as ratio of activity against fibroblasts compared to activity against melanoma cells. Leelamine is relatively selective with a ratio of >6 and >4 for UACC903 and 1205Lu melanoma cells. The selectivity ratio of compound 4a is ˜4 and ˜3 for UACC903 and 1205Lu and for compound 4b is ˜4 for both cell lines. The selectivity ratio of compound 5a is ˜4 for UACC903 and >2 for 1205Lu cells.

[2] = tested on: UACC 903 metastatic melanoma cells; experiment: MTS assay viability IC50, UACC 903; assay type: cell-based, human; details: for IC50: Homo sapiens, UACC-903; for Selectivity ratio, fibroblasts versus UACC903: activity against fibroblasts FF2441 compared to melanoma cells
Description: as §1
5×10^3 cells per well in 100 μL of media are plated and grown in a 96-well plate for 48 to 72 hours and treated with either DMSO vehicle control or 0.62 to 40 μmol/L of leelamine for 24, 48 or 72 hours. IC50 values for each compound in μmol/L for respective cell lines are measured from three independent experiments using GraphPad Prism version 4.01 (GraphPad Software, La Jolla, Calif.).
The IC50 and effect of liposomal preparations of leelamine on viability of normal human melanocytes, fibroblasts and melanoma cells UACC 903 and 1205 Lu are measured using the MTS assay (Promega, Madison, Wis.). Empty liposomes or liposomes containing abietic acid are used as controls. 5×10^3 cells per well in 100 μL of media are plated and grown in a 96-well plate for 48 or 72 hours for melanoma and normal cell lines, respectively. The cells are then treated with 0.62 to 40 μmol/L of liposome alone, a liposomal preparation of abietic acid, or with Nanolipolee-007 for 24 hours. IC50 values for each liposome in μmol/L for respective cell lines are measured from three independent experiments using GraphPad Prism version 4.01 (GraphPad Software, La Jolla, Calif.). Nanolipolee-007 retains the growth inhibitory activity of leelamine in killing melanoma cells in culture and specifically kills melanoma cells compared to normal cells, FIG. 24.
as §2, with “FIG. 52 is a graph showing IC50 values for leelamine and compounds 4a, 4b and 5a in treated fibroblasts (FF2441) compared to melanoma cells. Selectivity ratio here is defined as ratio of activity against fibroblasts compared to activity against melanoma cells. Leelamine is relatively selective with a ratio of >6 and >4 for UACC903 and 1205Lu melanoma cells. The selectivity ratio of compound 4a is ˜4 and ˜3 for UACC903 and 1205Lu and for compound 4b is ˜4 for both cell lines. The selectivity ratio of compound 5a is ˜4 for UACC903 and >2 for 1205Lu cells.” left out

[3] = tested on: Breast (MCF-7) cancer cell line; experiment: MTS assay viability IC50, MCF-7; assay type: cell-based; details: Homo sapiens, MCF7; Table 5
Description: as §2

[4] = tested on: Fibrosarcoma (HT-1080) cancer cell line; experiment: MTS assay viability IC50, HT-1080; assay type: cell-based; details: Homo sapiens, Table 5, read-out: IC50 Fibro Sarcoma (HT-1080)
Description: as §2

cancer cell line = experiment: MTS assay viability IC50, A-459; assay type: cell-based; details: A459; Table 5; read-out: IC50 Liver (A-459)
Description: as §2

[5] = Homo sapiens, FF2441, Table 5, read-out: IC50 Fibroblast FF2441
[6] = Table 4, read-out: IC50 Metastatic Melanoma Cell line UACC903
[7] = Table 5, read-out: IC50 Melanoma (UACC903)
[8] = Table 6, read-out: IC50 Metastatic melanoma UACC 903
[9] = Table 7, read-out: IC50 (UACC903)

**Q.** CC(C)C1=CC2=CCC3[C@](C)(CCC[C@@]3(C)C(=O)O)C2CC1 (stereo partly drawn) [Abietic acid, (1R,4aR)-1,4a-dimethyl-7-(propan-2-yl)-1,2,3,4,4a,4b,5,6,10,10a-decahydrophenanthrene-1-carboxylic acid, reference compound] was tested. Which IC50 ([1]; Homo sapiens, FF2441, Table 4, read-out: IC50 Normal fibroblast FF2441) did it give?
**A.** > 100 µM

**Q.** What about the IC50 [1, 5] of the same compound?
**A.** > 100 µM

**Q.** And the IC50 ([1]; Table 6, read-out: IC50 Normal fibroblast FF2441)?
**A.** > 100 µM

**Q.** And the IC50 [2, 6]?
**A.** > 100000 nM

**Q.** And the IC50 [2, 7]?
**A.** > 100000 nM

**Q.** What about the IC50 [2, 8] of the same compound?
**A.** > 100000 nM

**Q.** What about the IC50 [2, 9] of the same compound?
**A.** > 100000 nM

**Q.** What about the IC50 [3] of the same compound?
**A.** > 100 µM

**Q.** And the IC50 [4]?
**A.** > 100 µM

**Q.** What about the IC50 (cancer cell line) of the same compound?
**A.** > 100 µM

**Q.** With CC(C)C1=CC2=CCC3[C@](C)(CN)CCC[C@]3(C)C2CC1 (stereo partly drawn) [Compound 4a, {[(1R,4aR)-1,4a-dimethyl-7-(propan-2-yl)-1,2,3,4,4a,4b,5,6,10,10a-decahydrophenanthren-1-yl]methyl}amine] as the compound, how does the IC50 [1, 5] read?
**A.** 8.33 ± 0.43 µM

**Q.** And the IC50 ([2]; Example 8, read-out: IC50 UACC 903)?
**A.** 2130 nM

**Q.** What about the IC50 [2, 6] of the same compound?
**A.** 2130 ± 190 nM

**Q.** What about the IC50 [2, 7] of the same compound?
**A.** 2360 ± 250 nM

**Q.** And the IC50 [2, 8]?
**A.** 2130 ± 190 nM

**Q.** And the IC50 [2, 9]?
**A.** 2130 nM

**Q.** What about the “Selectivity ratio, fibroblasts versus UACC903” value (from here on “Selectivity ratio”) [2] of the same compound?
**A.** ~4

**Q.** And the IC50 [3]?
**A.** 8.69 ± 1.81 µM

**Q.** And the IC50 [4]?
**A.** 6.29 ± 1.1 µM

**Q.** What about the IC50 (cancer cell line) of the same compound?
**A.** 19.1 ± 3.87 µM

**Q.** Which IC50 [1, 5] does the source give for CC(C)c1ccc2c(c1)CCC1[C@](C)(CNC(=O)C(F)(F)F)CCC[C@]21C (stereo partly drawn) [Compound 5a, N-{[(1R,4aS)-1,4a-dimethyl-7-(propan-2-yl)-1,2,3,4,4a,9,10,10a-octahydrophenanthren-1-yl]methyl}-2,2,2-trifluoroacetamide] here?
**A.** 5.17 ± 0.02 µM

**Q.** And the IC50 [2, 6]?
**A.** 1280 ± 50 nM

**Q.** And the IC50 [2, 7]?
**A.** 1280 ± 50 nM

**Q.** What about the IC50 [2, 8] of the same compound?
**A.** 1280 ± 50 nM

**Q.** What about the IC50 [2, 9] of the same compound?
**A.** 1280 nM

**Q.** And the “Selectivity ratio” value [2]?
**A.** ~4

**Q.** What about the IC50 [3] of the same compound?
**A.** 4.39 ± 0.71 µM

**Q.** What about the IC50 [4] of the same compound?
**A.** 3.73 ± 0.54 µM

**Q.** And the IC50 (cancer cell line)?
**A.** 9.7 ± 1.34 µM

**Q.** With CC(C)c1ccc2c(c1)CCC1[C@](C)(CN)CCC[C@]21C (stereo partly drawn) [Leelamine, [(1R,4aS)-1,4a-dimethyl-7-(propan-2-yl)-1,2,3,4,4a,9,10,10a-octahydrophenanthren-1-yl]methanamine] as the compound, how does the IC50 [1, 5] read?
**A.** 8.91 ± 0.57 µM

**Q.** What about the IC50 [2, 7] of the same compound?
**A.** 1350 ± 500 nM

**Q.** And the IC50 [2, 8]?
**A.** 1350 ± 50 nM

**Q.** And the IC50 [2, 9]?
**A.** 1350 nM

**Q.** And the “Selectivity ratio” value [2]?
**A.** > 6

**Q.** And the IC50 [3]?
**A.** 6.42 ± 0.52 µM

**Q.** And the IC50 [4]?
**A.** 3.75 ± 0.54 µM

**Q.** And the IC50 (cancer cell line)?
**A.** 9.27 ± 1.43 µM
